{"source": "patent US20180147206A1", "about": "“ACTIVATION OF NEURONAL STORE-OPERATED CALCIUM ENTRY PATHWAY FOR THE TREATMENT OF ALZHEIMER'S DISEASE” (The Board of Regents of the University of Texas System, priority 2015, published 2018)", "key": {"APPKIGFP and WTGFP mice": {"test_system": "APPKIGFP and WTGFP mice", "test": "Contextual fear conditioning test", "format": "in vivo, mouse", "details": "i.p. 10 mg/kg"}, "TRPC6": {"target": "T1, TRPC6 (Homo sapiens, UniProt Q9Y210)", "T1 construct": "expressed in transfected cells; host or cells: HEK293", "T1 sequence (Q9Y210 1-931)": "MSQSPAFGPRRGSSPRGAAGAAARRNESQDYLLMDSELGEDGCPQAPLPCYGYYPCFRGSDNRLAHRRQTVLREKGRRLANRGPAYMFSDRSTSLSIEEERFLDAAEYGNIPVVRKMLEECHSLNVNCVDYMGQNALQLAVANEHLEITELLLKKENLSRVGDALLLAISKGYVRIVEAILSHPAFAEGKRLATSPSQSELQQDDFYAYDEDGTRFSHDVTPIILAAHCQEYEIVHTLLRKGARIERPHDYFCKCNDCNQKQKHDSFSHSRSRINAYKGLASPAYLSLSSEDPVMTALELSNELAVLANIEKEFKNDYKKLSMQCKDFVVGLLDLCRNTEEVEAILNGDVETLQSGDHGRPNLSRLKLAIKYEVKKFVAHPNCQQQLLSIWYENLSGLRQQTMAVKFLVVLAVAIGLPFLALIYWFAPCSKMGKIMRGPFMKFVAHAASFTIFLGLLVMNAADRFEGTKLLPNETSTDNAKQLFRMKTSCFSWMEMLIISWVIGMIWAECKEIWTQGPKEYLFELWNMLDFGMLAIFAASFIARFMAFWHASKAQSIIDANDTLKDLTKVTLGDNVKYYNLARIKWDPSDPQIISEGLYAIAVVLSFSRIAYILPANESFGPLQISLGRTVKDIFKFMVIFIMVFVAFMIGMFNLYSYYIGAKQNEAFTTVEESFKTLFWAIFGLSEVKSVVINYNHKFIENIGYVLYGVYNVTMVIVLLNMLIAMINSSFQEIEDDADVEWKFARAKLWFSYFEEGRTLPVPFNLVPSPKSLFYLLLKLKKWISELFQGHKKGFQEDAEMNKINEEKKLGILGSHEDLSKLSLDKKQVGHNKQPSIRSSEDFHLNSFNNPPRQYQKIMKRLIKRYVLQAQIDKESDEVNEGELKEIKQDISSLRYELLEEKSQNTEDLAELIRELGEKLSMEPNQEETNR", "test": "Fura-2 Ca2+ imaging in TRPC6-transfected HEK293 cells", "format": "cell-based", "details": "for potentiation of OAG-induced responses: preincubation 1 μM, 100 μM OAG"}, "[1]": {"test": "In vitro metabolism in liver S9 fractions", "format": "in vitro ADME, mouse", "details": "phase I cofactors (NADPH regenerating system); 2 μM", "procedure": "FIGS. 12A-D. NSN21778 in vitro metabolism stability, in vivo plasma pharmacokinetics, and side effect on body weight (Related to FIGS. 7A-G). (FIG. 12A) The metabolic stability of NSN21778 was evaluated in vitro after incubation with commercial liver S9 fractions in the presence of phase I (NADPH regenerating system) cofactors. Compound levels were determined by LC-MS/MS. Additionally, the stability of NSN21778 in the presence of commercial CD-1 mouse plasma was measured. (FIG. 12B) NSN21778 was dosed i.p. at 10 mg/kg to female CD-1 mice. Levels of NSN21778 in plasma and brain were evaluated by LC-MS/MS. (FIG. 12C) WTGFP, PS1KIGFP and APPKIGFP mice body weight after i.p. administrated with control solution or 10 mg/kg NSN21778 for 10 weeks. Data presented as mean±SE (n=5 mice). (FIG. 12D) Body weight gained for various treatments.\nIn vitro metabolism assays. Female ICR/CD-1 mouse S9 fractions were purchased from Celsis/In Vitro Technologies (Baltimore, Md.). 25 μl (0.5 mg) of S9 protein was added to a 15 ml glass screw cap tube. […] The supernatant was analyzed by LC-MS/MS. Stability in commercial mouse CD-1 plasma (Bioreclamation, Westbury, N.Y.) was measured in a similar fashion. […] Reactions were quenched with methanol as above and supernatants evaluated by LC-MS/MS. Compound half-life was determined by the method of substrate depletion as described (McNaney et al., 2008)."}, "[2]": {"test_system": "other TRPCs (TRPC1-7), Orais (Orai1-3), or combination of TRPC6 and Orai2", "test": "Fura-2 Ca2+ imaging in HEK293 cells transfected with other TRPCs, Orais or TRPC6 plus Orai2", "format": "cell-based", "details": "1 μM (data not shown)", "procedure": "To confirm the target for Hyp and NSN compounds, the inventors overexpressed TRPC6 in HEK293 cells and performed a series of Fura-2 Ca^2+ imaging experiments. […] In additional experiments, the inventors evaluated effects of 1 μM NSN compound in experiments with HEK293 cells transfected with other TRPCs (TRPC1-7), Orais (Orail-3), or combination of TRPC6 and Orai2. […] From these experiments, the inventors concluded that Hyp acts as direct activator of TRPC6 channels, but the actions of NSN compound are more complex. In further experiments, the inventors measured SOC in conditions of store depletion. To achieve this, HEK239 cells were preincubated in Ca^2+-free media containing 1 μM Tg. In these experiments, the inventors observed endogenous SOC response in EGFP-transfected cells, which was further enhanced in TRPC6-transfected cells. […] TRPC6 channels are known to be activated by DAG (Estacion et al., 2004). In spine nSOC measurements, addition of 100 μM DHPG was required to generate robust Ca^2+ responses. Thus, in the next series of experiments, the inventors evaluated effects of OAG, a synthetic and stable analog of DAG."}}}
{"smiles": "CC(=O)Nc1ccc(CCNc2ncnc3ccc(N)cc23)cc1", "note": "[NSN21778, N-{4-[2-(6-Amino-quinazolin-4-ylamino)-ethyl]-phenyl}-acetamide]", "values": [{"measurement": "contextual fear conditioning phenotype", "setting": "APPKIGFP and WTGFP mice; 6.5 month-old APPKIGFP mice", "value": "fully rescued"}, {"measurement": "contextual fear conditioning responses", "setting": "APPKIGFP and WTGFP mice; WTGFP mice, difference to control not statistically significant", "value": "somewhat impaired responses"}, {"measurement": "SOC in conditions of store depletion", "setting": "TRPC6; GFP or TRPC6 HEK293 cells preincubated in Ca2+-free media with 1 μM Tg (data not shown)", "value": "no additional effect"}, {"measurement": "Ca2+ influx", "setting": "TRPC6; TRPC6-transfected HEK293 cells, 1 μM, 2 mM Ca2+", "value": "did not trigger Ca^2+ influx"}, {"measurement": "potentiation of OAG-induced responses", "setting": "TRPC6; TRPC6-transfected cells, stores partially depleted (0.1 mM Ca2+)", "value": "significant potentiation"}, {"measurement": "potentiation of OAG-induced responses", "setting": "TRPC6; control GFP cells, stores partially depleted", "value": "not in control GFP cells"}, {"measurement": "toxicity in injected mice", "setting": "i.p. 10 mg/kg 3 times per week, WTGFP, PS1KIGFP and APPKIGFP mice", "value": "not observed any obvious toxicity"}, {"measurement": "body weight", "setting": "i.p. 10 mg/kg, following 10 weeks treatment", "value": "some weight loss"}, {"measurement": "metabolic stability in liver S9 fractions", "setting": "[1]", "value": "generally stable"}, {"measurement": "Ca2+ influx", "setting": "[2]", "value": "failed to induce Ca^2+ influx"}]}
